# Data reported in patent publication US10660789B2, “1,4-dihydropyridine derivatives with HSP modulating activity” (Richter Gedeon NYRT., priority 2011, dated 2020).
# Where a name gives a salt, the structure may show the parent alone.
# Columns and labels:
# [1] = system: APP mutant transgenic mice; experiment: Hippocampal histology after Morris water maze (cresyl violet, tau immunohistochemistry, Golgi staining); format: in vivo, mouse
# Experimental: After the Morris water maze task the animals were deeply anesthetized, and transcardialy perfused with 10 ml 4° C. phosphate-buffered saline solution (PBS), followed by 30 ml of 4° C. paraformaldehyde solution (4% in phosphate buffer, pH 7.4). The brains were removed and postfixed for 24 h in the same fixative (4° C.) and subsequently cryoprotected in 30% sucrose solution for 72 h (4° C.). Brains were cut on a cryostat in 30 μm hippocampal coronal sections, and the slices were collected and stored at 4° C. in PBS for free floating immunohistochemistry.
# Cresyl violet staining (Nissl staining) is used for neuronal tissue; the stain binds to the acidic components of the neuronal cytoplasm, showing the number of functioning neurons. Slides were stained into the filtered 1% crezyl violet solution for 5 min. and were dehydrated in 50% 70%, 95%, 2×100% ethanol for 1 minute each. After that slides were placed in xylene for another 10 minutes, and coversliped.
# Neurofibrillary tangles (NTFs) are intraneuronal aggregates; these are abnormal accumulations associated with neurodegenerative diseases. To visualize the presence of these structures, we used for immunostaining human PHF-tau MAb(clone AT100) primer antibody at 1:800 dilution in PBS (pH 7.4).
# The methodological steps in all three immunohistological techniques were the same. After quenching of endogenous peroxidase activity and a blocking step, the sections were incubated overnight at 4° C. with the primary antibody in the presence of 20% goat serum and Triton X-100 0.2%. On the following day, the sections were washed in PBS and incubated for 1 h at room temperature with the secondary biotinylated goat anti-mouse antibody (Vector Laboratories, Burlingame, Calif., USA, 1:400). […]
# Dendritic spines change their density after a CNS injury, to visualize this effect, we made Golgi staining. […] The slides were analyzed with confocal light microscopy, we counted dendritic spines 100 μm tong on hippocampal pyramidal cells, and start point was 100 μm farther from the stoma. […]
# [2] = system: Hsp27; experiment: Other in vitro effects, Hsp27 (Table 3); format: cell-based; parameters: key: +: co-inducing activity; −: silencing activity; 0: with the experimental methods applied no other HSP modulating effects could be identified
# Experimental: Reporter plasmids, containing the Hsp70 and/or Hsp25 promoter conjugated to either YFP or GFP (yellow or green fluorescent protein), were stably transfected into the cells and the expression of YFP or GFP was followed by flow cytometry. Cells were either kept at 37° C. or exposed to heat shock at 42° C. for 1 hour followed by a 16 hour recovery period at 37° C. in the presence or absence of different concentrations of the test compound. After recovery the expression of YFP or GFP which is in straight correlation with the promoter activity of Hsp70 or Hsp27 genes was followed by measuring the fluorescence intensity of the cells by flow cytometry. Fluorescence intensity is in straight correlation with the amount of fluorescent protein (GFP or YFP) produced under the control of hsp promoter. The mean fluorescence intensity of YFP or GFP produced is shown as “Hsp promoter activity”.
# [3] = system: B16F10 melanoma cells; experiment: Lysosomal destabilization, FITC-conjugated dextran fluorescence; format: cell-based, mouse
# Source text: Emerging evidence argues that both classic apoptosis pathways and lysosomal death pathways must be suppressed for effective development and progression of cancer. Tumor invasion and metastasis are associated with altered lysosomal trafficking and increased expression of the lysosomal proteases termed cathepsins. […] Normal cells respond to death stimuli by undergoing caspase-dependent apoptosis, the best characterized form of programmed cell death. In contrast, cancer cells frequently escape spontaneous and therapy-induced caspase activation due to acquired mutations in the apoptotic machinery. Apoptosis-resistant cancer cells are, however, not completely resistant to cell death, but can die via alternative cell death pathways often involving non-caspase proteases such as lysosomal cathepsins. Therefore, development of novel anticancer drugs that can trigger alternative death pathways that are independent of commonly mutated apoptosis-regulating genes is of great importance. […] Lysosomal destabilization could be followed by measuring the fluorescence intensity of the pH sensitive FITC-conjugated dextran. Lysosomal pH was determined by allowing the B16F10 melanoma cells to endocytose different amount of FITC-conjugated dextran (40 kDa) (from 10 mg/ml stock) for 24 h. […] Fluorescence was measured by plate reader using an excitation and emission wavelengths of 485 nm and 538 nm respectively.
smiles,measurement,setting,value
"COC(=O)C1=C(CCN(C)C)N(C)C(CCN(C)C)=C(C(=O)OC)C1c1ccc(C(F)(F)F)cc1 [Example 23, Dimethyl 4-(4-trifuoromethylphenyl)-2,6-bis-(2-dimethylaminoethyl)-1-methyl-1,4-dihydropyridine-3,5-dicarboxylate dihydrochloride]","Golgi staining, dendritic spine density",[1]; hippocampal pyramidal cells,the spine density was the highest in the APP mutant compound of Ex. 23 treated group
same,tau-immunohistochemistry,"[1]; hippocampus, APP mutant mice",could inhibit the taupathology
same,"cresyl-violet staining, alive neurons","[1]; hippocampus, versus negative control group",more alive neurons
same,Other in vitro effects: Hsp27,[2],Hsp27 0
same,Other in vitro effects (lysosomes),[3],lysosome destabilization
same,"fluorescence intensity of FITC-conjugated dextran (lysosomal pH, lysosomal destabilization)","[3]; Ex. 23 5 μM for 6 hours, compared to Siramesine (20 μm), FIG. 9",significantly higher fluorescence intensity
